Reference: patent US12559454B2, “Benzenesulfonamide derivatives and uses thereof” (2692372 Ontario, Inc., priority 2019, dated 2026)
“And” between values parts separate entries of the source, which are not always exact repeats. Equal values may be shown once. Read-outs that look alike come from different tables or passages of the source.

Columns and labels:
[1] = tested on: normal pooled human fibroblasts; assay: Viability of normal pooled human fibroblasts (Example G1); conditions: Fibroblast, read-out: Human Fibroblast (IC50, μM)
[2] = tested on: normal primary human fibroblast (NHF) cell lines; assay: Toxicity study, CellTiter-Blue viability in normal primary human fibroblasts (NHF); type: cell-based; conditions: NHF cells, 72 hrs exposure
Protocol: Anti-cancer efficacy of exemplary compounds of this application was assessed in vitro in different cancer cell lines. Cell viability was examined following treatment at various concentration of inhibitor (0.097656-50 μM) using a cell Titer-Blue cell viability assay. 1×10^4 cells (NHF cells)/well were plated in 96-well assay plates in culture medium. All cells were grown in DMEM, IMDM and RPMI-1640 supplemented with 10% FBS. After 24 hrs, test compounds and vehicle controls were added to appropriate wells so the final volume was 100p in each well. The cells were cultured for the desired test exposure period (72 hrs) at 37° C. and 5% CO2. The assay plates were removed from 37° C. incubator and 20 μl/well of CellTiter-Blue® Reagent was added. The plates were incubated using standard cell culture conditions for 1-4 hours and the plates were shaken for 10 seconds and record fluorescence at 560/590 nm.
Representative data for exemplary compounds against select normal primary human fibroblast (NHF) cell lines are presented in the following Table 7.

[3] = tested on: RL human non-Hodgkin's lymphoma B cell line; assay: Cell viability in RL cells (Table 6); type: cell-based
[4] = tested on: RL human non-Hodgkin's lymphoma B cell line; assay: In vitro efficacy in RL cells (Example G1); conditions: read-out: RL (IC50, μM)
BTK [5] = biological target: T1, BTK (Homo sapiens, UniProt Q06187); assay: Selected kinase inhibition, BTK (Table 6); type: biochemical
T1 sequence (Q06187 whole entry, species assumed): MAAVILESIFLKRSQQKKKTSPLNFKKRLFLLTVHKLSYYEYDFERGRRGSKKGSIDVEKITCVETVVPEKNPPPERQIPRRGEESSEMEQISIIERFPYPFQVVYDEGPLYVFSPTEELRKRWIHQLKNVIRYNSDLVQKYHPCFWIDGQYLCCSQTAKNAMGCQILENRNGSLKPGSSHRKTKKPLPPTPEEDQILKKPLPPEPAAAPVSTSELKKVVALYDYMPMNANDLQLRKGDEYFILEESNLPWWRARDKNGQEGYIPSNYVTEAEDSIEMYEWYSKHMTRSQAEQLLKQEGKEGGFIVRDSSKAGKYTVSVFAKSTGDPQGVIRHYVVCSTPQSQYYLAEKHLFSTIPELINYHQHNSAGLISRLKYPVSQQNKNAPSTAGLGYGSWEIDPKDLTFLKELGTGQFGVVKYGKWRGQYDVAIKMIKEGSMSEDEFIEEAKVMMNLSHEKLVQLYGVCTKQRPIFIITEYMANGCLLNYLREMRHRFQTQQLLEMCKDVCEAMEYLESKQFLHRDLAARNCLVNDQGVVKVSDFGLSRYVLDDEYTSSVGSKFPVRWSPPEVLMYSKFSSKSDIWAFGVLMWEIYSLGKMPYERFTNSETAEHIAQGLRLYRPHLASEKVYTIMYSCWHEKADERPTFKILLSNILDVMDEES

BTK [6] = biological target: T1, BTK; assay: In vitro BTK inhibition (no preincubation); type: biochemical; conditions: Table 17
BTK [7] = biological target: T1, BTK; assay: BTK irreversible inhibition, enzyme kinetic analysis; type: biochemical
Protocol: One of ordinary skill in the art will recognize that this is consistent with the irreversible inhibition of BTK by compound I-A1.
One of ordinary skill in the art will recognize that this is consistent with the irreversible inhibition of BTK by compound I-A6.
One of ordinary skill in the art will recognize that this is consistent with the irreversible inhibition of BTK by compound 3A-2.
The shift of IC50 to a lower value after pre-incubation of the enzyme indicates to one of ordinary skill in the art that a significant portion of the enzyme was inhibited irreversibly during the incubation period.

[8] = Parallel artificial membrane permeability assay (PAMPA), Example C4; type: in vitro ADME; conditions: PBS pH 7.4, 10 μM, 16 hours
Protocol: Assay Procedures. […] 7) Cover with plate lid. Vortex at 750 rpm for 100 seconds. […] Determine the compound concentrations by LC/MS/MS.

BTK [9] = biological target: T1, BTK; assay: BTK washout experiment; type: biochemical; conditions: 3-h incubation, 40 nM BTK, 296 nM compound, 400-fold dilution
Protocol: After a 3-h incubation of 40 nM BTK in the presence of 296 nM of compound I-A1, a 400-fold dilution was performed to remove excess inhibitor.
After a 6-h incubation of 50 nM BTK in the presence of 280 nM of compound 3A-6, a 400-fold dilution was performed to remove excess inhibitor.
By way of contrast, a “washout” experiment performed with ARQ-531 gives a very different result, because this compound lacks a warhead and is known to inhibit BTK reversibly. After a 6-h incubation of 50 nM BTK in the presence of 177 nM of ARQ-531, a 400-fold dilution was performed to remove excess inhibitor. […] This indicates to one of ordinary skill in the art that the enzyme was not inhibited irreversibly during the incubation with ARQ-531.

BTK (His-tagged protein) = assay: Covalent modification of BTK by mass spectrometry (intact protein); type: binding; conditions: 10 μM BTK, 50 μM compound, 2 hours, 30° C.
Protocol: After incubation of 10 μM BTK in the presence of 50 μM of compound I-A1 for 2 hours at 30° C., the mass of the modified protein was determined by mass spectrometry. […] After incubation with inhibitor I-A1, the intensity of this had decreased by an order of magnitude, and the most intense peak is consistent with the protein whose mass was increased by 595 Da, corresponding closely to the expected mass of the inhibitor I-A1 (less one fluoride from inhibitor, and one proton from protein, 596 Da).

MOLM-13 cells = assay: CellTiter-Blue cell viability, MOLM-13; type: cell-based; conditions: Homo sapiens, 72 hrs exposure
Method in brief: (§1)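 Cells plated at 1×10^4 per well, compound (0.097656-50 μM) added after 24 hrs and exposed 72 hrs at 37° C, 5% CO2. Viability by CellTiter-Blue, 1-4 h incubation, fluorescence at 560/590 nm.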

tubulin = assay: Tubulin polymerization assay; type: biochemical; conditions: for % Inhibition: Vmax normalized to tubulin only control; for % D.O.P.: degree of polymerization relative to tubulin control
Method in brief: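 Purified tubulin (3 mg/mL in the polymerization mix) in 80 mM PIPES pH 6.9, 2 mM MgCl2, 0.5 mM EGTA, 1 mM GTP, 10.2% glycerol was added to inhibitor at 37 °C. A340 read every 15 s for 30 min; maximal baseline-subtracted change relative to tubulin-only control gave % degree of polymerization.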

[10] = Parallel artificial membrane permeability assay (PAMPA), Example D4; conditions: for recovery at 16 h, 10 μM: pH 7.4
Protocol: (§2) 1) The stock solutions of positive controls were prepared in DMSO at the concentration of 10 mM. Testosterone and methotrexate were used as control compounds in this assay. 2) Prepare a stock solution of compounds in DMSO at the concentration of 10 mM, and further dilute with PBS (pH 7.4). The final concentration of the test compound is 10 μM.
(§3) Assay Procedures. […] 2)Carefully pipette 5 μL of the lecithin/dodecane mixture into each acceptor plate well (top compartment), avoiding pipette tip contact with the membrane. 3) Immediately after the application of the artificial membrane (within 10 minutes), add 300 μL of PBS (pH 7.4) solution to each well of the acceptor plate. Add 300 μL of drug-containing solutions to each well of the donor plate (bottom compartment) in triplicate. 4) Slowly and carefully place the acceptor plate into the donor plate, making sure the underside of the membrane is in contact with the drug-containing solutions in all wells. 5) Replace the plate lid and incubate at 25° C., 60 rpm for 16 hours. 6) After incubation, aliquots of 50 μL from each well of acceptor and donor plate are transferred into a 96-well plate. Add 200 μL of methanol (containing IS: 100 nM Alprazolam, 200 nM Labetalol and 2 μM Ketoprofen) into each well. 7) Cover with plate lid. Vortex at 750 rpm for 100 seconds. Samples were centrifuged at 3,220 g for 20 minutes. Determine the compound concentrations by LC/MS/MS.

[11] = Reactivity profiling with glutathione, HPLC method; type: physicochemical; conditions: IMDM buffer with 10% FBS and 5 mM GSH, 25 μM compound
Protocol: The rate of compound degradation is determined by the integrated area of the analytical peak corresponding to the intact compound (t=0) after each sampling time. The elution time was 13 minutes with the flow rate of 1.2 ml/min. The mobile phase was consisted of phase A and B. Mobile phase A was analytical grade acetonitrile (+0.1% formic acid) and mobile phase B was Milli-Q water (+0.1% formic acid). Each compound was tested in duplicate. The data was processed and analyzed using GraphPad.

MV4-11 cells = assay: CellTiter-Blue cell viability, MV-4-11; type: cell-based; conditions: Homo sapiens, 72 hrs exposure
Method in brief: as §1

[12] = Intrinsic clearance in mouse hepatocyte; type: in vitro ADME; conditions: hepatocytes
Protocol: A stock of 100 μM test compound was prepared by diluting the 10 mM test compound in DMSO with a solution of 50% acetonitrile and 50% water. In a 96-well non-coated plate, 198 μL of hepatocytes was pipetted, and the plate was placed in the incubator on an orbital shaker to allow the hepatocytes to warm for 10 minutes. To this solution was added 2 μL of the 100 μM test compound to start the reaction, and the plate was placed on an orbital shaker. […] The reaction solution was then vortexed for 10 minutes and centrifuged at 4,000 rpm for 30 minutes at 4° C. 400 μL of the supernatant was transferred to one new 96-well plate. Centrifuged at 4,000 rpm for 30 minutes at 4° C. Transfer 100 μL of the supernatant to a new 96-well plate ensuring the pellet was not disturbed. Add 100 μL of ultrapure water to all samples for analysis by LC-MS/MS. Bioanalytical method: Column—Phenomenex Synergi 4μ Hydro-PR 80A (2.0×30 mm). Mobile phase—0.1% formic acid in water (solvent A) and 0.1% formic acid in acetonitrile (solvent B). Column temperature—room temperature. Injection volume—10 μL. MS analysis—API 4000 instrument from AB Inc (Canada) with an ESI interface.

K562 cells = assay: CellTiter-Blue cell viability, K562; type: cell-based; conditions: Homo sapiens, 72 hrs exposure
Method in brief: as §1

[13] = Plasma concentration in Balb/C nude mice
Protocol: IP administration at 40 mg/kg
Bioanalytical assay: Mobile phase: Solvent A=Water (0.1% Formic acid, 5% Acetonitrile), Solvent B=Acetonitrile (0.1% Formic acid, 5% Water), Column: Agilent ZORBAX XDB-Phenyl 5 μm (50×2.10 mm), MS: AB API 5500 LC/MS/MS instrument, HPLC: Shimadzu (DGU-20A5R)
Mouse species: Balb/C nude mice

[14] = Reactivity profiling with glutathione, LC/MS/MS; type: physicochemical; conditions: PBS buffer with 5 mM GSH, PBS pH 7.4, 25° C., 5 μM compound
Protocol: The experiment was started by placing 1 μL of 1 mM stocking solution of the test compound in DMSO in 199 μL of PBS buffer at pH 7.4 with 5 mM GSH to reach a final concentration of 5 μM. The final DMSO concentration was 0.5%. The solution was then incubated at 25° C. at 600 rpm, and was quenched with 600 μL solution of acetonitrile at 0, 30, 60 and 120 minutes. The quenched solution was vortexed for 10 minutes and centrifuged for 40 minutes at 3,220 g. An aliquot of 100 μL of the supernatant was diluted by 100 μL ultra-pure water, and the mixture was used for LC/MS/MS analysis. The data was processed and analyzed using Microsoft Excel.

[15] = PAMPA, 16 h, 10 μM, pH 7.4
Protocol: as §2, §3

Structure (SMILES)	IC50 [1] [µM]	IC50 [2] [nM]	IC50 [3] [nM]	IC50 [4] [µM]	IC50 (BTK [5]) [nM]	IC50 (BTK [6]) [nM]	inhibition profile by enzyme kinetic analysis (BTK [7]; 0.1 nM BTK, 500 μM ATP)	−Log Pe [8]	% Inhibition (tubulin)	% D.O.P. (tubulin)	recovery at 16 h, 10 μM [10] [%]	half-life at 1 μM [12] [h]	also measured
C=CC(=O)N1CCC[C@@H](n2nc(-c3ccc(Oc4ccccc4)cc3)c3c(N)ncnc32)C1 [Ibrutinib, reference compound]	26.8	10000 to 25000	10000 to 30000	10.3									
Nc1ncnc2c1c(-c1ccc(Oc3ccccc3)cc1)nn2[C@@H]1CCCN(S(=O)(=O)c2c(F)c(F)c(F)c(F)c2OC2CC2)C1 [I-A6, (R)-1-(1-((2-cyclopropoxy-3,4,5,6-tetrafluorophenyl)sulfonyl)piperidin-3-yl)-3-(4-phenoxyphenyl)-1H-pyrazolo[3,4-d]pyrimidin-4-amine]	> 25	> 25000		1	100 to 1000	100 to 1000	time-dependent inhibition	C (>6 to ≤7)					kinact (BTK [7]; 0.1 nM BTK, 500 μM ATP, saturation kinetics): 0.000671 s⁻¹; Ki (BTK [7]; 0.1 nM BTK, 500 μM ATP, saturation kinetics of irreversible inhibition): 71.3 nM
Nc1ncnc2c1c(-c1ccc(Oc3ccccc3)cc1)nn2[C@@H]1CCCN(S(=O)(=O)c2c(F)c(F)c(F)c(F)c2F)C1 [I-A1, (R)-1-(1-((perfluorophenyl)sulfonyl)piperidin-3-yl)-3-(4-phenoxyphenyl)-1H-pyrazolo[3,4-d]pyrimidin-4-amine]	3.98	1000 to 10000	1000 to 10000	1.61			time-dependent inhibition	B (>5 to ≤6)					inhibition at 0.296 µM (BTK [9]; read-out: enzyme inhibited irreversibly): > 90%; remaining activity at 0.296 µM (BTK [9]; relative to DMSO, read-out: residual activity of the enzyme): 7%; mass increase of BTK after incubation (BTK (His-tagged protein)): 595 Da
COc1ccc(NS(=O)(=O)c2c(F)c(F)c(F)c(F)c2OC2CC2)cc1F [Compound I-75, 2-cyclopropoxy-3,4,5,6-tetrafluoro-N-(3-fluoro-4-methoxyphenyl)benzenesulfonamide]									B (10-20%)	B (< 85%)	94.9	1.67 to 16.7	IC50 (MOLM-13 cells): 100 to 1000 nM; −Log Pe ([10]; PBS pH 7.4, 10 μM, 16 hours): 5.02; half-life at 25 μM [11]: 1.67 to 16.7 h; IC50 (MV4-11 cells): ≤ 100 nM; IC50 (K562 cells): 100 to 1000 nM; Cmax ([13]; Balb/C nude, mouse, ip, 40 mg/kg): < 20 ng/mL and < 50 µM; K (h^−1) ([13]; IP 40 mg/kg, Balb/C nude mice): A (≤5 h^−1)
Nc1ncnc2c1c(-c1ccc(Oc3ccccc3)cc1)nn2[C@@H]1CCCN(S(=O)(=O)c2c(F)c(F)cc(F)c2F)C1 [I-A5, (R)-3-(4-phenoxyphenyl)-1-(1-((2,3,5,6-tetrafluorophenyl)sulfonyl)piperidin-3-yl)-1H-pyrazolo[3,4-d]pyrimidin-4-amine]		> 25000			100 to 1000	100 to 1000	linear enzyme reaction rates	B (>5 to ≤6)					IC50 (BTK [7]; fitting of linear reaction rates to a reversible binding model, read-out: IC50 (reversible binding model)): 334 nM; half-life at 5 μM [14]: 167 to 500 h
COc1ccc(NS(=O)(=O)c2c(F)c(F)c(F)c(F)c2F)cc1F [Batabulin, batabulin, reference compound]									C (>20%)	B (< 85%)	67.4	≤ 0.167	−Log Pe [15]: 5.00
